Source: patent US20160178613A1, “Electrical Cell-substrate Impedance Sensor (ECIS)” (priority 2015, published 2016)

Assays:
MCF-7 cells = assay: SiNW-ECIS electrical impedance/capacitance response of MCF-7 cells treated with antitubulin drugs; type: cell-based, human; conditions: PTX 0.1 nano-moles per liter; for changes in membrane impedance vs control sample (normalized, mean) / variations in capacitance of the sensor vs control sample (normalized): MCF-7, 2 hours (T1) after drug incubation; for changes in membrane impedance vs control sample (normalized, mean) / variations in capacitance of the sensor vs control sample (normalized) / change in norm of impedance of treated cells, T1 vs T2 / changes in electrical impedance with respect to control sample / norm of capacitive changes, control sample more than drug value: ABZ 2.1 nano-moles per liter; for changes in electrical impedance with respect to control sample / norm of capacitive changes, control sample more than drug value: MCF-7, 6 hours (T2) after drug incubation
Procedure: In this example, the diagnostic response of cells membrane to extremely low dose of antitubulin drugs is investigated. Initially, MCF-7 cell lines, isolated from grade I human breast tumors, were obtained from the National Cell Bank of Iran (Pasteur Institute). Then, cells were maintained in a CO2 incubator (37° C., 5% CO2) in RPMI-1640 medium supplemented with 5% fetal bovine serum, and 1% penicillin/streptomycin. The fresh medium was replaced every other day. Then, the cultured cells were dropped on the surface of the SiNW-ECIS, designed and fabricated pursuant to teachings of the present application. Prior to each experiment, cells were trypsinized to be detached from the substrate and resuspended on the SiNW surface. To minimize the effect of trypsinization, the procedure may last for less than 4 minutes at room temperature of about 20° C. The samples were held in an incubator for about 4 hours to achieve cells attachment on the SiNWs. Thereafter, the ABZ drug with low concentrations of about 2.1 nano-moles per liter and the PTX drug with low concentrations of about 0.1 nano-moles per liter were added to individual samples. Finally, the signal recording and biological assays were investigated about 2 hours and 6 hours after the drug treatment (6 hours and 10 hours after the beginning of culturing process).
Referring to FIGS. 12A-12G, comparative normalized diagrams of impedance (designated by ΔZ % and represented by solid black lines) and capacitance changes (designated by ΔC % and represented by dashed grey lines) are illustrated for MCF-7 cells seeded on SiNW electrodes after treating by 2.1 nano-moles per liter of ABZ and 0.1 nano-moles per liter of PTX. The time interval between the drug incubation and the signal extraction are 2 hours (designated by T1) and 6 hours (designated by T2). In addition, the same diagrams are plotted for control sample prepared with no drug treatment stage.
According to the method described in the present example, the samples were maintained in an incubator so that the signal extraction was repeated 10 hours after cells dropping (6 hours after drug incubation for treated samples) to monitor the time evolution of drug induced MT polymerization/depolymerization on bioelectrical response of the membrane.

[1] = test system: tubulin assemblies of MCF-7 cells; assay: Confocal microscopy of tubulin assemblies of MCF-7 cells; type: cell-based, human; conditions: ABZ 2.1 nano-moles per liter, PTX 0.1 nano-moles per liter
Procedure: In addition, an un-treated control sample was prepared as reference for comparison. Then, samples were washed with PBS and permeabilized with microtubule stabilizing buffer [80 mM PIPES-KOH (pH 6.8), 5 mM EGTA, and 1 mM MgCl2 containing 0.5% Triton X-100] for 5 min at room temperature before being fixed with chilled absolute methanol for 10 min at −20° C. Thereafter, the fixed cells were washed and incubated with monoclonal mouse anti-α-tubulin antibody (Sigma Co.) for 1 hour at room temperature followed by incubation with FITC-conjugated antimouse IgG antibody (Santa Cruz Biotechnology). The stained cells were mounted with Vectashield (Vector Laboratories, Burlingame, Calif.) and observed by confocal microscopy.

[2] = MCF-7, 2 hours vs 6 hours after drug incubation

SMILES: CCCSc1ccc2nc(NC(=O)OC)[nH]c2c1 [ABZ, Albendazole]
- changes in membrane impedance vs control sample (normalized, mean) (MCF-7 cells): 25%
- variations in capacitance of the sensor vs control sample (normalized) (MCF-7 cells): 70%
- change in norm of impedance of treated cells, T1 vs T2 (MCF-7 cells; [2]): about 60%
- changes in electrical impedance with respect to control sample (MCF-7 cells): about 90%
- norm of capacitive changes, control sample more than drug value (MCF-7 cells): about 90%
- spindle / microtubule morphology in confocal image ([1]; MCF-7, 2 hours after treatment): abnormally reduced numbers of spindles or monopolar (monoaster) spindles
- spindle / microtubule morphology in confocal image ([1]; MCF-7, 6 hours after treatment): still the monoastered MTs are observable

SMILES: CC(=O)O[C@H]1C(=O)[C@@]2(C)[C@H]([C@H](OC(=O)c3ccccc3)[C@]3(O)C[C@H](OC(=O)[C@H](O)[C@@H](NC(=O)c4ccccc4)c4ccccc4)C(C)=C1C3(C)C)[C@]1(OC(C)=O)CO[C@@H]1C[C@@H]2O [PTX, Paclitaxel]
- changes in membrane impedance vs control sample (normalized, mean) (MCF-7 cells): about 50%
- variations in capacitance of the sensor vs control sample (normalized) (MCF-7 cells): about 60%
- change in norm of impedance of treated cells, T1 vs T2 (MCF-7 cells; [2]): 15%
- time dependent variation in capacitive behavior, T1 vs T2 (MCF-7 cells; [2]): about 85%
- changes in electrical impedance with respect to control sample (MCF-7 cells): about 30%
- norm of capacitive changes, control sample more than drug value (MCF-7 cells): ~75%
- spindle / microtubule morphology in confocal image ([1]; MCF-7, 2 hours after treatment): aggregated spindles
- spindle / microtubule morphology in confocal image ([1]; MCF-7, 6 hours after treatment): increased aggregation in MT spindles
